Reference: ChEMBL document CHEMBL3734692, “Design and synthesis of 2-oxindole based multi-targeted inhibitors of PDK1/Akt signaling pathway for the treatment of glioblastoma multiforme” (Eur J Med Chem, 2015)
Activity calls are given as the source filed them. No cut-off for these calls is given here.

Columns and labels:
[1] = molecular target: Mitogen-activated protein kinase 8 (Homo sapiens) (UniProt P45983); test: Inhibition of JNK1 (unknown origin) at 1 uM by selectscreen kinase profiling assay in presence of ATP
[2] = molecular target: Serine/threonine-protein kinase PAK 6 (Homo sapiens) (UniProt Q9NQU5); test: Inhibition of PAK6 (unknown origin) at 1 uM by selectscreen kinase profiling assay in presence of ATP
[3] = molecular target: Ribosomal protein S6 kinase beta-1 (Homo sapiens) (UniProt P23443); test: Inhibition of RPS6KB1 (unknown origin) at 1 uM by selectscreen kinase profiling assay in presence of ATP
[4] = molecular target: CDK9/cyclin T1 (Homo sapiens) (UniProt O60563+P50750); test: Inhibition of CDK9/cyclin T1 (unknown origin) at 1 uM by selectscreen kinase profiling assay in presence of ATP; type: protein-complex assay
[5] = Cell cycle arrest in human GSC derived from ANGM-CSS cells assessed as accumulation at G0/G1 phase at 1 uM after 7 days by based fluorescent reagent based cell analysis (reference value: 71.4%); type: functional
ANGM-CSS = test: Induction of human GSC differentiation derived from ANGM-CSS cells assessed as up regulation of GFAP mRNA expression at 1 uM after 7 days by RT-PCR analysis; type: functional, cell-based

Chain of Ribosomal protein S6 kinase beta-1 (Homo sapiens) (P23443 whole entry, looked up): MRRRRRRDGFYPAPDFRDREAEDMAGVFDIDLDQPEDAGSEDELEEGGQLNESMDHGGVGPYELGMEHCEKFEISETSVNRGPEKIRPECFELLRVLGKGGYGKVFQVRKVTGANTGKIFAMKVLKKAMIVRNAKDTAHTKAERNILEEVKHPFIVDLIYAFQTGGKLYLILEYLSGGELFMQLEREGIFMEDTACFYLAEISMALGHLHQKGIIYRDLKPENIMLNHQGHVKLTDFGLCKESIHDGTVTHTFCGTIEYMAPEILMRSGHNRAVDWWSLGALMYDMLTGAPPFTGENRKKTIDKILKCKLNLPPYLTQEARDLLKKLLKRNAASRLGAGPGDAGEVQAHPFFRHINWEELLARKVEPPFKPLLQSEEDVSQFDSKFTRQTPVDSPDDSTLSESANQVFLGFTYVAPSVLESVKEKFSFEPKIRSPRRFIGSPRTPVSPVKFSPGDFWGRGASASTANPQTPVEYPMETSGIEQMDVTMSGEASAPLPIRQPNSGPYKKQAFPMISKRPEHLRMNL
Chain of Mitogen-activated protein kinase 8 (Homo sapiens) (P45983 whole entry): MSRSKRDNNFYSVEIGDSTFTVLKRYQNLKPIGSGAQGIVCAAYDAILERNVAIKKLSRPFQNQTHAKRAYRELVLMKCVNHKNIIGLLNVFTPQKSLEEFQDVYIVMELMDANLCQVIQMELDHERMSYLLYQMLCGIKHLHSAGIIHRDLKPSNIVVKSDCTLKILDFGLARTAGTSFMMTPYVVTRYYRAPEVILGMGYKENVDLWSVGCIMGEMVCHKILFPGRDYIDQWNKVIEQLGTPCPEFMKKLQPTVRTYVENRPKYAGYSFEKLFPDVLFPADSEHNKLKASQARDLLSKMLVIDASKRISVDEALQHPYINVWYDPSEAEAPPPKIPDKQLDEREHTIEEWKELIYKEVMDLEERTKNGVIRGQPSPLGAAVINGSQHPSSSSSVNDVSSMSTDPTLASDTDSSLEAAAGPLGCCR
Chain of Serine/threonine-protein kinase PAK 6 (Homo sapiens) (Q9NQU5 whole entry, looked up): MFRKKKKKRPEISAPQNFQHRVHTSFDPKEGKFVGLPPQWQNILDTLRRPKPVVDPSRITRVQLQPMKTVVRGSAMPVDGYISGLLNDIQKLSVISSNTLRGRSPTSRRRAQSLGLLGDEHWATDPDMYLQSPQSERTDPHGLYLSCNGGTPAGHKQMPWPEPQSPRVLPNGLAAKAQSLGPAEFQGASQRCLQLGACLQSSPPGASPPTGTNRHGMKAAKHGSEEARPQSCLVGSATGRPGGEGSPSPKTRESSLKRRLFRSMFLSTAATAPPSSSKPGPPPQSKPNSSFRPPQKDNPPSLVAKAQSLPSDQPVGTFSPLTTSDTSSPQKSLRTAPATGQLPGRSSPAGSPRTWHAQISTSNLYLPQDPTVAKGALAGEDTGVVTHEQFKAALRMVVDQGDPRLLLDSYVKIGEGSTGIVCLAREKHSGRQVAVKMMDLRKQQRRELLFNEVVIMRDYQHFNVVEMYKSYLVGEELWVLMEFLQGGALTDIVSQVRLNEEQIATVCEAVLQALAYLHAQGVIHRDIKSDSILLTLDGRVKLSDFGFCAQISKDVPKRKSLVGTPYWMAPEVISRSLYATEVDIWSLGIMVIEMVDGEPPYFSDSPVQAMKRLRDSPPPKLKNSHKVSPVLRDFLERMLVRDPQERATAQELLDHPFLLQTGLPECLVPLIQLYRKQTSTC

In the case of `COc1cc2c(cc1OC)CN(CC(=O)Nc1ccc3c(c1)/C(=C/c1cnc[nH]1)C(=O)N3)CC2`, the inhibition [1] is reported as 5%, the inhibition [2] is reported as 2% and the inhibition [3] is reported as 18%. For the same compound, the inhibition [4] was 9%, the Activity [5] was 69% and the Activity (ANGM-CSS) was “Active”.
